Assay results as given in PubChem BioAssay AID1259407 (Chemical Carcinogenesis Research Information System (CCRIS), 2018).
The source made the active and inactive calls. How the calls were made is not given here.

Test system: CCRIS mutagenicity, Ames/micronucleus/aberration tests
Experiment: CCRIS mutagenicity studies
[1] = Test System: AMES SALMONELLA TYPHIMURIUM, Strain/Indicator: TA97, Metabolic Activation: NONE, Method: PREINCUBATION
[2] = Test System: AMES SALMONELLA TYPHIMURIUM, Strain/Indicator: TA98, Metabolic Activation: HAMSTER, LIVER, S-9, AROCLOR 1254 (10%), Method: PREINCUBATION
[3] = Test System: AMES SALMONELLA TYPHIMURIUM, Strain/Indicator: TA98, Metabolic Activation: NONE, Method: PREINCUBATION
[4] = Test System: AMES SALMONELLA TYPHIMURIUM, Strain/Indicator: TA98, Metabolic Activation: RAT, LIVER, S-9, AROCLOR 1254 (10%), Method: PREINCUBATION
[5] = Test System: AMES SALMONELLA TYPHIMURIUM, Strain/Indicator: TA100, Metabolic Activation: HAMSTER, LIVER, S-9, AROCLOR 1254 (10%), Method: PREINCUBATION
[6] = Test System: AMES SALMONELLA TYPHIMURIUM, Strain/Indicator: TA100, Metabolic Activation: NONE, Method: PREINCUBATION
[7] = Test System: AMES SALMONELLA TYPHIMURIUM, Strain/Indicator: TA100, Metabolic Activation: RAT, LIVER, S-9, AROCLOR 1254 (10%), Method: PREINCUBATION
[8] = Test System: AMES SALMONELLA TYPHIMURIUM, Strain/Indicator: TA1535, Metabolic Activation: HAMSTER, LIVER, S-9, AROCLOR 1254 (10%), Method: PREINCUBATION
[9] = Test System: AMES SALMONELLA TYPHIMURIUM, Strain/Indicator: TA1535, Metabolic Activation: NONE, Method: PREINCUBATION
[10] = Test System: AMES SALMONELLA TYPHIMURIUM, Strain/Indicator: TA1535, Metabolic Activation: RAT, LIVER, S-9, AROCLOR 1254 (10%), Method: PREINCUBATION
[11] = Test System: AMES SALMONELLA TYPHIMURIUM, Strain/Indicator: TA1537, Metabolic Activation: NONE, Method: PREINCUBATION

Measured: mutagenic call

CCCCOCCCC
inactive: Test System: AMES SALMONELLA TYPHIMURIUM, Strain/Indicator: TA97, Metabolic Activation: HAMSTER, LIVER, S-9, AROCLOR 1254 (10%), Method: PREINCUBATION inactive; negative | Test System: AMES SALMONELLA TYPHIMURIUM, Strain/Indicator: TA97, Metabolic Activation: HAMSTER, LIVER, S-9, AROCLOR 1254 (30%), Method: PREINCUBATION inactive; negative | [1] inactive; negative | Test System: AMES SALMONELLA TYPHIMURIUM, Strain/Indicator: TA97, Metabolic Activation: RAT, LIVER, S-9, AROCLOR 1254 (10%), Method: PREINCUBATION inactive; negative | Test System: AMES SALMONELLA TYPHIMURIUM, Strain/Indicator: TA97, Metabolic Activation: RAT, LIVER, S-9, AROCLOR 1254 (30%), Method: PREINCUBATION inactive; negative | [2] inactive; negative | Test System: AMES SALMONELLA TYPHIMURIUM, Strain/Indicator: TA98, Metabolic Activation: HAMSTER, LIVER, S-9, AROCLOR 1254 (30%), Method: PREINCUBATION inactive; negative | [3] inactive; negative | [4] inactive; negative | Test System: AMES SALMONELLA TYPHIMURIUM, Strain/Indicator: TA98, Metabolic Activation: RAT, LIVER, S-9, AROCLOR 1254 (30%), Method: PREINCUBATION inactive; negative | [5] inactive; negative | Test System: AMES SALMONELLA TYPHIMURIUM, Strain/Indicator: TA100, Metabolic Activation: HAMSTER, LIVER, S-9, AROCLOR 1254 (30%), Method: PREINCUBATION inactive; negative | [6] inactive; negative | [7] inactive; negative | Test System: AMES SALMONELLA TYPHIMURIUM, Strain/Indicator: TA100, Metabolic Activation: RAT, LIVER, S-9, AROCLOR 1254 (30%), Method: PREINCUBATION inactive; negative | [8] inactive; negative | Test System: AMES SALMONELLA TYPHIMURIUM, Strain/Indicator: TA1535, Metabolic Activation: HAMSTER, LIVER, S-9, AROCLOR 1254 (30%), Method: PREINCUBATION inactive; negative | [9] inactive; negative | [10] inactive; negative | Test System: AMES SALMONELLA TYPHIMURIUM, Strain/Indicator: TA1535, Metabolic Activation: RAT, LIVER, S-9, AROCLOR 1254 (30%), Method: PREINCUBATION inactive; negative

CCC1(CC(=O)O)OCCc2c1[nH]c1c(C(C)O)cccc21 (stereo not drawn)
inactive: Test System: AMES SALMONELLA TYPHIMURIUM, Strain/Indicator: TA98, Metabolic Activation: NONE, Method: STANDARD PLATE inactive; negative | Test System: AMES SALMONELLA TYPHIMURIUM, Strain/Indicator: TA98, Metabolic Activation: RAT, LIVER, S-9, Method: STANDARD PLATE inactive; negative | Test System: AMES SALMONELLA TYPHIMURIUM, Strain/Indicator: TA100, Metabolic Activation: NONE, Method: STANDARD PLATE inactive; negative | Test System: AMES SALMONELLA TYPHIMURIUM, Strain/Indicator: TA100, Metabolic Activation: RAT, LIVER, S-9, Method: STANDARD PLATE inactive; negative | Test System: AMES SALMONELLA TYPHIMURIUM, Strain/Indicator: TA1535, Metabolic Activation: NONE, Method: STANDARD PLATE inactive; negative | Test System: AMES SALMONELLA TYPHIMURIUM, Strain/Indicator: TA1535, Metabolic Activation: RAT, LIVER, S-9, Method: STANDARD PLATE inactive; negative | Test System: AMES SALMONELLA TYPHIMURIUM, Strain/Indicator: TA1537, Metabolic Activation: NONE, Method: STANDARD PLATE inactive; negative | Test System: AMES SALMONELLA TYPHIMURIUM, Strain/Indicator: TA1537, Metabolic Activation: RAT, LIVER, S-9, Method: STANDARD PLATE inactive; negative | Test System: E. COLI, Strain/Indicator: WP2 UVRA, Metabolic Activation: NONE, Method: STANDARD PLATE inactive; negative | Test System: E. COLI, Strain/Indicator: WP2 UVRA, Metabolic Activation: RAT, LIVER, S-9, Method: STANDARD PLATE inactive; negative

CC(C)CCC(C)Nc1ccc(NC(C)CCC(C)C)cc1 (stereo not drawn)
inactive: [2] inactive; negative | [3] inactive; negative | [4] inactive; negative | [5] inactive; negative | [6] inactive; negative | [7] inactive; negative | [8] inactive; negative | [9] inactive; negative | [10] inactive; negative | Test System: AMES SALMONELLA TYPHIMURIUM, Strain/Indicator: TA1537, Metabolic Activation: HAMSTER, LIVER, S-9, AROCLOR 1254 (10%), Method: PREINCUBATION inactive; negative | [11] inactive; negative | Test System: AMES SALMONELLA TYPHIMURIUM, Strain/Indicator: TA1537, Metabolic Activation: RAT, LIVER, S-9, AROCLOR 1254 (10%), Method: PREINCUBATION inactive; negative

CCCCCCCCC1CO1 (stereo not drawn)
inactive: Test System: AMES SALMONELLA TYPHIMURIUM, Strain/Indicator: TA97, Metabolic Activation: HAMSTER, LIVER, S-9, AROCLOR 1254 (10% & 30%), Method: PREINCUBATION inactive; negative | [1] inactive; negative | Test System: AMES SALMONELLA TYPHIMURIUM, Strain/Indicator: TA97, Metabolic Activation: RAT, LIVER, S-9, AROCLOR 1254 (10% & 30%), Method: PREINCUBATION inactive; negative | Test System: AMES SALMONELLA TYPHIMURIUM, Strain/Indicator: TA98, Metabolic Activation: HAMSTER, LIVER, S-9, AROCLOR 1254 (10% & 30%), Method: PREINCUBATION inactive; negative | [3] inactive; negative | Test System: AMES SALMONELLA TYPHIMURIUM, Strain/Indicator: TA98, Metabolic Activation: RAT, LIVER, S-9, AROCLOR 1254 (10% & 30%), Method: PREINCUBATION inactive; negative | Test System: AMES SALMONELLA TYPHIMURIUM, Strain/Indicator: TA100, Metabolic Activation: HAMSTER, LIVER, S-9, AROCLOR 1254 (10% & 30%), Method: PREINCUBATION inactive; negative | [6] inactive; negative | Test System: AMES SALMONELLA TYPHIMURIUM, Strain/Indicator: TA100, Metabolic Activation: RAT, LIVER, S-9, AROCLOR 1254 (10% & 30%), Method: PREINCUBATION inactive; negative | Test System: AMES SALMONELLA TYPHIMURIUM, Strain/Indicator: TA1535, Metabolic Activation: HAMSTER, LIVER, S-9, AROCLOR 1254 (10% & 30%), Method: PREINCUBATION inactive; negative | [9] inactive; negative | Test System: AMES SALMONELLA TYPHIMURIUM, Strain/Indicator: TA1535, Metabolic Activation: RAT, LIVER, S-9, AROCLOR 1254 (10% & 30%), Method: PREINCUBATION inactive; negative | Test System: AMES SALMONELLA TYPHIMURIUM, Strain/Indicator: TA1537, Metabolic Activation: HAMSTER, LIVER, S-9, AROCLOR 1254 (10% & 30%), Method: PREINCUBATION inactive; negative | [11] inactive; negative | Test System: AMES SALMONELLA TYPHIMURIUM, Strain/Indicator: TA1537, Metabolic Activation: RAT, LIVER, S-9, AROCLOR 1254 (10% & 30%), Method: PREINCUBATION inactive; negative | Test System: UDS RAT HEPATOCYTES, Strain/Indicator: THY INCORP, Metabolic Activation: NONE inactive; negative
